Holding throughout (test): relative viability (nuclei count vs DMSO), 5 days (fraction); higher = more cells survive
Compound in the experiment “Dabrafenib + Navitoclax”: CC(C)(C)c1nc(-c2cccc(NS(=O)(=O)c3c(F)cccc3F)c2F)c(-c2ccnc(N)n2)s1 [Dabrafenib] + CC1(C)CCC(c2ccc(Cl)cc2)=C(CN2CCN(c3ccc(C(=O)NS(=O)(=O)c4ccc(N[C@H](CCN5CCOCC5)CSc5ccccc5)c(S(=O)(=O)C(F)(F)F)c4)cc3)CC2)C1 [Navitoclax] (partner 0.5 µM)
An outline of the steps:
(§1)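 A single step with final 0.05% Triton X-100, 1% formaldehyde and 1 ug/ml Hoechst fixed the cells and stained nuclei 5 days after treatment. Lung cancer cell lines in 1536-well plates had been treated by pin tool the day after seeding with one drug alone or a fixed anchor-drug dose plus five library-drug doses (not always all listed) in √10 steps, and nuclei were counted on 4× images. Relative viability is the ratio of nuclei in treated wells to nuclei in vehicle wells, taken as the median of duplicate plates.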

Compound in the experiment “VX-702 + Phenformin”: NC(=O)c1ccc(N(C(N)=O)c2c(F)cccc2F)nc1-c1ccc(F)cc1F [VX-702] + N=C(N)NC(=N)NCCc1ccccc1 [Phenformin] (partner 250 µM)
The essentials: as §1

Compound in the experiment “Dabrafenib + Bortezomib”: CC(C)(C)c1nc(-c2cccc(NS(=O)(=O)c3c(F)cccc3F)c2F)c(-c2ccnc(N)n2)s1 [Dabrafenib] + CC(C)C[C@H](NC(=O)[C@H](Cc1ccccc1)NC(=O)c1cnccn1)B(O)O [Bortezomib] (partner 0.002 µM)
An outline of the steps:
as §1

Compound in the experiment “Dabrafenib + Pemetrexed”: CC(C)(C)c1nc(-c2cccc(NS(=O)(=O)c3c(F)cccc3F)c2F)c(-c2ccnc(N)n2)s1 [Dabrafenib] + Nc1nc2[nH]cc(CCc3ccc(C(=O)N[C@@H](CCC(=O)O)C(=O)O)cc3)c2c(=O)[nH]1 [Pemetrexed] (partner 0.2 µM)
The essentials: as §1

The record followed here is the supplement of paper PMC10307832.

Turning to HOP-62, the relative viability in the experiment with Dabrafenib + Navitoclax (first compound 0.003 µM) came out at 0.89; with Dabrafenib + Navitoclax (first compound 0.009487 µM) it was 1.01; with Dabrafenib + Navitoclax (first compound 0.03 µM), 1.02; with Dabrafenib + Navitoclax (first compound 0.09487 µM), 0.718; with Dabrafenib + Navitoclax (first compound 0.3 µM), 1.02; with VX-702 + Phenformin (first compound 0.02 µM), 0.809. For the same cell line, the relative viability with VX-702 + Phenformin (first compound 0.2 µM) was determined as 0.656; in the experiment with VX-702 + Phenformin (first compound 0.6325 µM) it was 0.698; with VX-702 + Phenformin (first compound 2 µM), 0.708; with Dabrafenib + Bortezomib (first compound 0.009487 µM) it was 0.809; with Dabrafenib + Bortezomib (first compound 0.03 µM) it was 0.861; in the experiment with Dabrafenib + Bortezomib (first compound 0.09487 µM), 0.235. For the same cell line, the relative viability amounted to 0.706 in the experiment with Dabrafenib + Bortezomib (first compound 0.3 µM); 0.253 in the experiment with Dabrafenib + Pemetrexed (first compound 0.003 µM); 0.255 with Dabrafenib + Pemetrexed (first compound 0.009487 µM); 0.286 with Dabrafenib + Pemetrexed (first compound 0.03 µM); 0.273 with Dabrafenib + Pemetrexed (first compound 0.09487 µM); 0.25 with Dabrafenib + Pemetrexed (first compound 0.3 µM).
As for NCI-H1792, the relative viability amounted to 0.61 with Dabrafenib + Navitoclax (first compound 0.009487 µM); 0.608 in the experiment with Dabrafenib + Navitoclax (first compound 0.03 µM); 0.568 with Dabrafenib + Navitoclax (first compound 0.09487 µM); 0.557 with Dabrafenib + Navitoclax (first compound 0.3 µM); 0.314 with VX-702 + Phenformin (first compound 0.02 µM); 0.303 in the experiment with VX-702 + Phenformin (first compound 0.2 µM). The relative viability with VX-702 + Phenformin (first compound 0.6325 µM) turned out to be 0.45; in the experiment with VX-702 + Phenformin (first compound 2 µM), 0.237; in the experiment with Dabrafenib + Bortezomib (first compound 0.009487 µM) it was 0.923; with Dabrafenib + Bortezomib (first compound 0.03 µM) it was 0.897; with Dabrafenib + Bortezomib (first compound 0.09487 µM) it was 0.885; in the experiment with Dabrafenib + Bortezomib (first compound 0.3 µM), 0.893. Also, the relative viability in the experiment with Dabrafenib + Pemetrexed (first compound 0.009487 µM) came out at 1.03; with Dabrafenib + Pemetrexed (first compound 0.03 µM), 0.622; with Dabrafenib + Pemetrexed (first compound 0.09487 µM), 0.723; in the experiment with Dabrafenib + Pemetrexed (first compound 0.3 µM), 0.525.
Turning to NCI-H2228, the relative viability in the experiment with Dabrafenib + Navitoclax (first compound 0.003 µM) was 0.543; in the experiment with Dabrafenib + Navitoclax (first compound 0.009487 µM) it was 0.953; with Dabrafenib + Navitoclax (first compound 0.03 µM), 0.693; with Dabrafenib + Navitoclax (first compound 0.09487 µM) it was 0.854; with Dabrafenib + Navitoclax (first compound 0.3 µM) it was 0.757; in the experiment with VX-702 + Phenformin (first compound 0.02 µM), 0.48. Further, the relative viability was determined as 0.354 with VX-702 + Phenformin (first compound 0.2 µM); 0.324 in the experiment with VX-702 + Phenformin (first compound 0.6325 µM); 0.34 with VX-702 + Phenformin (first compound 2 µM); 0.897 with Dabrafenib + Bortezomib (first compound 0.003 µM); 0.829 in the experiment with Dabrafenib + Bortezomib (first compound 0.009487 µM); 0.859 with Dabrafenib + Bortezomib (first compound 0.03 µM). In addition, the relative viability in the experiment with Dabrafenib + Bortezomib (first compound 0.09487 µM) stood at 0.912; with Dabrafenib + Bortezomib (first compound 0.3 µM), 1.03; with Dabrafenib + Pemetrexed (first compound 0.003 µM), 0.342; in the experiment with Dabrafenib + Pemetrexed (first compound 0.009487 µM) it was 0.415; with Dabrafenib + Pemetrexed (first compound 0.03 µM) it was 0.357; in the experiment with Dabrafenib + Pemetrexed (first compound 0.09487 µM), 0.332. Moreover, the relative viability with Dabrafenib + Pemetrexed (first compound 0.3 µM) was 0.321.
With EMC-BAC-2, the relative viability was determined as 1.27 with Dabrafenib + Navitoclax (first compound 0.003 µM); 1.19 with Dabrafenib + Navitoclax (first compound 0.009487 µM); 0.998 with Dabrafenib + Navitoclax (first compound 0.03 µM); 1.1 with Dabrafenib + Navitoclax (first compound 0.09487 µM); 1.19 with Dabrafenib + Navitoclax (first compound 0.3 µM); 0.522 with VX-702 + Phenformin (first compound 0.02 µM). The relative viability in the experiment with VX-702 + Phenformin (first compound 0.2 µM) was 0.549; with VX-702 + Phenformin (first compound 0.6325 µM), 0.526; with VX-702 + Phenformin (first compound 2 µM), 0.402; with Dabrafenib + Bortezomib (first compound 0.003 µM), 1.04; with Dabrafenib + Bortezomib (first compound 0.009487 µM) it was 1.11; with Dabrafenib + Bortezomib (first compound 0.03 µM), 1.03. Moreover, the relative viability with Dabrafenib + Bortezomib (first compound 0.09487 µM) stood at 0.936; with Dabrafenib + Bortezomib (first compound 0.3 µM) it was 1.06; in the experiment with Dabrafenib + Pemetrexed (first compound 0.009487 µM), 0.401; in the experiment with Dabrafenib + Pemetrexed (first compound 0.03 µM), 0.392; with Dabrafenib + Pemetrexed (first compound 0.09487 µM), 0.32; with Dabrafenib + Pemetrexed (first compound 0.3 µM), 0.377.
Regarding NCI-H1355, the relative viability was 1.01 with Dabrafenib + Navitoclax (first compound 0.009487 µM); 0.894 with Dabrafenib + Navitoclax (first compound 0.03 µM); 1.07 with Dabrafenib + Navitoclax (first compound 0.3 µM); 0.53 in the experiment with VX-702 + Phenformin (first compound 0.02 µM); 0.445 with VX-702 + Phenformin (first compound 0.2 µM); 0.482 with VX-702 + Phenformin (first compound 0.6325 µM). The relative viability with VX-702 + Phenformin (first compound 2 µM) amounted to 0.494; with Dabrafenib + Bortezomib (first compound 0.009487 µM), 1.22; in the experiment with Dabrafenib + Bortezomib (first compound 0.03 µM) it was 1.12; with Dabrafenib + Bortezomib (first compound 0.3 µM), 1.29; with Dabrafenib + Pemetrexed (first compound 0.009487 µM), 1.09; in the experiment with Dabrafenib + Pemetrexed (first compound 0.03 µM), 0.965. The relative viability with Dabrafenib + Pemetrexed (first compound 0.09487 µM) was determined as 0.804; with Dabrafenib + Pemetrexed (first compound 0.3 µM), 1.08.
Regarding NCI-H3122, the relative viability in the experiment with Dabrafenib + Navitoclax (first compound 0.003 µM) was found to be 1.04; in the experiment with Dabrafenib + Navitoclax (first compound 0.009487 µM), 1.01; with Dabrafenib + Navitoclax (first compound 0.03 µM), 1.06; with Dabrafenib + Navitoclax (first compound 0.09487 µM), 0.991; with Dabrafenib + Navitoclax (first compound 0.3 µM), 1.08; with VX-702 + Phenformin (first compound 0.02 µM), 0.409. Further, the relative viability amounted to 0.388 in the experiment with VX-702 + Phenformin (first compound 0.2 µM); 0.44 in the experiment with VX-702 + Phenformin (first compound 0.6325 µM); 0.424 with VX-702 + Phenformin (first compound 2 µM); 1.04 with Dabrafenib + Bortezomib (first compound 0.003 µM); 1.01 with Dabrafenib + Bortezomib (first compound 0.009487 µM); 1.12 in the experiment with Dabrafenib + Bortezomib (first compound 0.03 µM). Further, the relative viability with Dabrafenib + Bortezomib (first compound 0.09487 µM) was 1.06; with Dabrafenib + Bortezomib (first compound 0.3 µM), 1.1; with Dabrafenib + Pemetrexed (first compound 0.003 µM), 0.19; with Dabrafenib + Pemetrexed (first compound 0.009487 µM) it was 0.195; in the experiment with Dabrafenib + Pemetrexed (first compound 0.03 µM), 0.214; with Dabrafenib + Pemetrexed (first compound 0.09487 µM), 0.203. Further, in the experiment with Dabrafenib + Pemetrexed (first compound 0.3 µM), the relative viability came out at 0.215.
